Columns and labels:
Assay type in all cases: ADME
[1] = The drug is tested on the gut metagenome community of A-07 with ENA study accession number: PRJEB31790 for biotransformation under anaerobic condition. The drug concentrations were measured over 7 timepoints collected between 0 and 12 hours of incubation by liquid-chromatography-coupled mass spectrometry (LC–MS); set-up: dose 5 uM, timepoint 0, 0.75, 1.5, 3, 6, 9, 12 hours; conditions: 5 µM
[2] = The drug is tested on Parabacteroides merdae strain: DSM19495 for biotransformation under anaerobic condition. The drug concentrations were measured over 6 timepoints collected between 0 and 12 hours of incubation by liquid-chromatography-coupled mass spectrometry (LC–MS); set-up: dose 5 uM, timepoint 0, 1.5, 3, 6, 9, 12 hours; conditions: 5 µM
[3] = The drug is tested on the gut metagenome community of A-05 with ENA study accession number: PRJEB31790 for biotransformation under anaerobic condition. The drug concentrations were measured over 7 timepoints collected between 0 and 12 hours of incubation by liquid-chromatography-coupled mass spectrometry (LC–MS); set-up: dose 5 uM, timepoint 0, 0.75, 1.5, 3, 6, 9, 12 hours; conditions: 5 µM
[4] = The drug is tested on Clostridium ramosum strain: DSM1402 for biotransformation under anaerobic condition. The drug concentrations were measured over 6 timepoints collected between 0 and 12 hours of incubation by liquid-chromatography-coupled mass spectrometry (LC–MS); set-up: dose 5 uM, timepoint 0, 1.5, 3, 6, 9, 12 hours; conditions: thomasclavelia ramosa, 5 µM
[5] = The drug is tested on Dorea formicigenerans strain: DSM3992 for biotransformation under anaerobic condition. The drug concentrations were measured over 6 timepoints collected between 0 and 12 hours of incubation by liquid-chromatography-coupled mass spectrometry (LC–MS); set-up: dose 5 uM, timepoint 0, 1.5, 3, 6, 9, 12 hours; conditions: 5 µM
[6] = The drug is tested on Lactobacillus fermentum strain: DSM20052 for biotransformation under anaerobic condition. The drug concentrations were measured over 6 timepoints collected between 0 and 12 hours of incubation by liquid-chromatography-coupled mass spectrometry (LC–MS); set-up: dose 5 uM, timepoint 0, 1.5, 3, 6, 9, 12 hours; conditions: limosilactobacillus fermentum, 5 µM
[7] = The drug is tested on Gemella haemolysans strain: DSM107751 for biotransformation under microaerobic condition. The drug concentrations were measured over 6 timepoints collected between 0 and 12 hours of incubation by liquid-chromatography-coupled mass spectrometry (LC–MS); set-up: dose 5 uM, timepoint 0, 1.5, 3, 6, 9, 12 hours; conditions: 5 µM
[8] = The drug is tested on Bacteroides stercoris strain: HM 1036 for biotransformation under anaerobic condition. The drug concentrations were measured over 6 timepoints collected between 0 and 12 hours of incubation by liquid-chromatography-coupled mass spectrometry (LC–MS); set-up: dose 5 uM, timepoint 0, 1.5, 3, 6, 9, 12 hours; conditions: 5 µM
[9] = The drug is tested on the gut metagenome community of P-04 with ENA study accession number: PRJEB31790 for biotransformation under anaerobic condition. The drug concentrations were measured over 7 timepoints collected between 0 and 12 hours of incubation by liquid-chromatography-coupled mass spectrometry (LC–MS); set-up: dose 5 uM, timepoint 0, 0.75, 1.5, 3, 6, 9, 12 hours; conditions: 5 µM
[10] = The drug is tested on Bacteroides caccae strain: DSM19024 for biotransformation under anaerobic condition. The drug concentrations were measured over 6 timepoints collected between 0 and 12 hours of incubation by liquid-chromatography-coupled mass spectrometry (LC–MS); set-up: dose 5 uM, timepoint 0, 1.5, 3, 6, 9, 12 hours; conditions: 5 µM
[11] = The drug is tested on the gut metagenome community of A-07 with ENA study accession number: PRJEB31790 for biotransformation under microaerobic condition. The drug concentrations were measured over 7 timepoints collected between 0 and 12 hours of incubation by liquid-chromatography-coupled mass spectrometry (LC–MS); set-up: dose 5 uM, timepoint 0, 0.75, 1.5, 3, 6, 9, 12 hours; conditions: 5 µM
[12] = The drug is tested on the gut metagenome community of A-04 with ENA study accession number: PRJEB31790 for biotransformation under microaerobic condition. The drug concentrations were measured over 7 timepoints collected between 0 and 12 hours of incubation by liquid-chromatography-coupled mass spectrometry (LC–MS); set-up: dose 5 uM, timepoint 0, 0.75, 1.5, 3, 6, 9, 12 hours; conditions: 5 µM
[13] = The drug is tested on the gut metagenome community of P-01 with ENA study accession number: PRJEB31790 for biotransformation under anaerobic condition. The drug concentrations were measured over 7 timepoints collected between 0 and 12 hours of incubation by liquid-chromatography-coupled mass spectrometry (LC–MS); set-up: dose 5 uM, timepoint 0, 0.75, 1.5, 3, 6, 9, 12 hours; conditions: 5 µM
[14] = The drug is tested on the gut metagenome community of A-02 with ENA study accession number: PRJEB31790 for biotransformation under anaerobic condition. The drug concentrations were measured over 7 timepoints collected between 0 and 12 hours of incubation by liquid-chromatography-coupled mass spectrometry (LC–MS); set-up: dose 5 uM, timepoint 0, 0.75, 1.5, 3, 6, 9, 12 hours; conditions: 5 µM
[15] = The drug is tested on Actinomyces naeslundi strain: DSM43013 for biotransformation under anaerobic condition. The drug concentrations were measured over 6 timepoints collected between 0 and 12 hours of incubation by liquid-chromatography-coupled mass spectrometry (LC–MS); set-up: dose 5 uM, timepoint 0, 1.5, 3, 6, 9, 12 hours; conditions: actinomyces naeslundii, 5 µM
[16] = The drug is tested on Capnocytophaga ochracea strain: DSM7271 for biotransformation under microaerobic condition. The drug concentrations were measured over 6 timepoints collected between 0 and 12 hours of incubation by liquid-chromatography-coupled mass spectrometry (LC–MS); set-up: dose 5 uM, timepoint 0, 1.5, 3, 6, 9, 12 hours; conditions: 5 µM
[17] = The drug is tested on the gut metagenome community of A-04 with ENA study accession number: PRJEB31790 for biotransformation under anaerobic condition. The drug concentrations were measured over 7 timepoints collected between 0 and 12 hours of incubation by liquid-chromatography-coupled mass spectrometry (LC–MS); set-up: dose 5 uM, timepoint 0, 0.75, 1.5, 3, 6, 9, 12 hours; conditions: 5 µM
[18] = The drug is tested on Akkermansia muciniphila strain: DSM22959 for biotransformation under anaerobic condition. The drug concentrations were measured over 6 timepoints collected between 0 and 12 hours of incubation by liquid-chromatography-coupled mass spectrometry (LC–MS); set-up: dose 5 uM, timepoint 0, 1.5, 3, 6, 9, 12 hours; conditions: 5 µM
[19] = The drug is tested on the gut metagenome community of A-01 with ENA study accession number: PRJEB31790 for biotransformation under microaerobic condition. The drug concentrations were measured over 7 timepoints collected between 0 and 12 hours of incubation by liquid-chromatography-coupled mass spectrometry (LC–MS); set-up: dose 5 uM, timepoint 0, 0.75, 1.5, 3, 6, 9, 12 hours; conditions: 5 µM
[20] = The drug is tested on Bacteroides xylanisolvens strain: HM 722 for biotransformation under anaerobic condition. The drug concentrations were measured over 6 timepoints collected between 0 and 12 hours of incubation by liquid-chromatography-coupled mass spectrometry (LC–MS); set-up: dose 5 uM, timepoint 0, 1.5, 3, 6, 9, 12 hours; conditions: 5 µM
[21] = The drug is tested on the gut metagenome community of A-10 with ENA study accession number: PRJEB31790 for biotransformation under microaerobic condition. The drug concentrations were measured over 7 timepoints collected between 0 and 12 hours of incubation by liquid-chromatography-coupled mass spectrometry (LC–MS); set-up: dose 5 uM, timepoint 0, 0.75, 1.5, 3, 6, 9, 12 hours; conditions: 5 µM
[22] = The drug is tested on Gemella morbillorum strain: DSM20572 for biotransformation under anaerobic condition. The drug concentrations were measured over 6 timepoints collected between 0 and 12 hours of incubation by liquid-chromatography-coupled mass spectrometry (LC–MS); set-up: dose 5 uM, timepoint 0, 1.5, 3, 6, 9, 12 hours; conditions: 5 µM
[23] = The drug is tested on Prevotella copri strain: DSM18205 for biotransformation under anaerobic condition. The drug concentrations were measured over 6 timepoints collected between 0 and 12 hours of incubation by liquid-chromatography-coupled mass spectrometry (LC–MS); set-up: dose 5 uM, timepoint 0, 1.5, 3, 6, 9, 12 hours; conditions: segatella copri, 5 µM
[24] = The drug is tested on the gut metagenome community of A-09 with ENA study accession number: PRJEB31790 for biotransformation under microaerobic condition. The drug concentrations were measured over 7 timepoints collected between 0 and 12 hours of incubation by liquid-chromatography-coupled mass spectrometry (LC–MS); set-up: dose 5 uM, timepoint 0, 0.75, 1.5, 3, 6, 9, 12 hours; conditions: 5 µM
[25] = The drug is tested on Bacteroides thetaiotaomicron strain: DSM2079 for biotransformation under anaerobic condition. The drug concentrations were measured over 6 timepoints collected between 0 and 12 hours of incubation by liquid-chromatography-coupled mass spectrometry (LC–MS); set-up: dose 5 uM, timepoint 0, 1.5, 3, 6, 9, 12 hours; conditions: 5 µM

| Compound | Bacterial Biotransformation [1] | Bacterial Biotransformation [2] | Bacterial Biotransformation [3] | Bacterial Biotransformation [4] | Bacterial Biotransformation [5] | Bacterial Biotransformation [6] | Bacterial Biotransformation [7] | Bacterial Biotransformation [8] | Bacterial Biotransformation [9] | Bacterial Biotransformation [10] | Bacterial Biotransformation [11] | Bacterial Biotransformation [12] | Bacterial Biotransformation [13] | Bacterial Biotransformation [14] | Bacterial Biotransformation [15] | Bacterial Biotransformation [16] | Bacterial Biotransformation [17] | Bacterial Biotransformation [18] | Bacterial Biotransformation [19] | Bacterial Biotransformation [20] | other results |
| --- | --- | --- | --- | --- | --- | --- | --- | --- | --- | --- | --- | --- | --- | --- | --- | --- | --- | --- | --- | --- | --- |
| CCOC(=O)[C@H](CCc1ccccc1)N[C@@H](C)C(=O)N1[C@H](C(=O)O)C[C@@H]2CCC[C@@H]21 | Compound NOT metabolized | Compound NOT metabolized | Compound NOT metabolized | Compound NOT metabolized | Compound NOT metabolized | Compound metabolized | Compound NOT metabolized | Compound NOT metabolized | Compound NOT metabolized | Compound NOT metabolized | Compound NOT metabolized | Compound NOT metabolized | Compound NOT metabolized | Compound NOT metabolized | Compound NOT metabolized | Compound NOT metabolized | Compound NOT metabolized | Compound NOT metabolized | Compound NOT metabolized | Compound NOT metabolized | Bacterial Biotransformation [21]: Compound NOT metabolized; Bacterial Biotransformation [22]: Compound NOT metabolized; Bacterial Biotransformation [23]: Compound NOT metabolized; Bacterial Biotransformation [24]: Compound NOT metabolized; Bacterial Biotransformation [25]: Compound NOT metabolized |
| CC(C)NCC(O)COc1ccc(CC(N)=O)cc1 (stereo not given) [ATENOLOL] | Compound NOT metabolized | Compound NOT metabolized | Compound NOT metabolized | Compound NOT metabolized | Compound NOT metabolized | Compound NOT metabolized | Compound NOT metabolized | Compound NOT metabolized | Compound NOT metabolized | Compound NOT metabolized | Compound NOT metabolized | Compound NOT metabolized | Compound NOT metabolized | Compound NOT metabolized | Compound NOT metabolized | Compound NOT metabolized | Compound NOT metabolized | Compound NOT metabolized | Compound NOT metabolized | Compound NOT metabolized | Bacterial Biotransformation [21]: Compound NOT metabolized; Bacterial Biotransformation [22]: Compound NOT metabolized; Bacterial Biotransformation [23]: Compound NOT metabolized; Bacterial Biotransformation [24]: Compound NOT metabolized; Bacterial Biotransformation [25]: Compound NOT metabolized |
| Cn1cnc([N+](=O)[O-])c1Sc1ncnc2nc[nH]c12 [AZATHIOPRINE] | Compound metabolized | Compound metabolized | Compound metabolized | Compound metabolized | Compound metabolized | Compound metabolized | Compound NOT metabolized | Compound metabolized | Compound NOT metabolized | Compound metabolized | Compound metabolized | Compound metabolized | Compound metabolized | Compound metabolized | Compound NOT metabolized | Compound metabolized | Compound metabolized | Compound metabolized | Compound NOT metabolized | Compound metabolized | Bacterial Biotransformation [21]: Compound NOT metabolized; Bacterial Biotransformation [22]: Compound NOT metabolized; Bacterial Biotransformation [23]: Compound metabolized; Bacterial Biotransformation [24]: Compound metabolized; Bacterial Biotransformation [25]: Compound metabolized |
